Measurements from ChEMBL document CHEMBL3877324, “Synthesis of new spirooxindole-pyrrolothiazole derivatives: Anti-cancer activity and molecular docking” (Bioorg Med Chem, 2017).

Tests used:
[1] = Growth inhibition of human K562 cells after 48 hrs by WST1 assay; format: functional, cell-based; conditions: K562, 48 h
[2] = Growth inhibition of human MCF7 cells after 48 hrs by WST1 assay; format: functional, cell-based; conditions: MCF7, 48 h
MCF7 = assay: Induction of apoptosis in human MCF7 cells at 10 uM after 48 hrs by Annexin-V FITC/propidium iodide staining based flow cytometry relative to control; format: functional

## O=C1Nc2ccccc2[C@]12N1CSC[C@H]1[C@H](c1ccc(C(F)(F)F)cc1)[C@]21CCC/C(=C\c2ccc(C(F)(F)F)cc2)C1=O
[1]
  IC50: 33.2 µM
[2]
  IC50: 49.4 µM

## O=C1Nc2ccccc2[C@]12N1CSC[C@H]1[C@H](c1ccccc1)[C@]21CCC/C(=C\c2ccccc2)C1=O
[1]
  IC50: 16.6 µM
[2]
  IC50: 26.8 µM

## COc1ccc(/C=C2\CCC[C@@]3(C2=O)[C@@H](c2ccc(OC)cc2)[C@@H]2CSCN2[C@@]32C(=O)Nc3ccccc32)cc1
[1]
  IC50: 19.5 µM
[2]
  IC50: 24.4 µM

## O=C1Nc2ccccc2[C@]12N1CSC[C@H]1[C@H](c1ccc(Br)cc1)[C@]21CCC/C(=C\c2ccc(Br)cc2)C1=O
[1]
  IC50: 14.7 µM
MCF7
  fold change (FC): 2
[2]
  IC50: 15.3 µM

## O=C1Nc2ccccc2[C@]12N1CSC[C@H]1[C@H](c1cccc(Br)c1)[C@]21CCC/C(=C\c2cccc(Br)c2)C1=O
[1]
  IC50: 22.2 µM
[2]
  IC50: 34.8 µM

## O=C1Nc2ccccc2[C@]12N1CSC[C@H]1[C@H](c1ccc(Cl)cc1)[C@]21CCC/C(=C\c2ccc(Cl)cc2)C1=O
[1]
  IC50: 24 µM
[2]
  IC50: 49.1 µM

## Cc1ccc(/C=C2\CCC[C@@]3(C2=O)[C@@H](c2ccc(C)cc2)[C@@H]2CSCN2[C@@]32C(=O)Nc3ccccc32)cc1
[1]
  IC50: 38.1 µM
[2]
  IC50: 43.1 µM

## O=C1Nc2ccccc2[C@]12N1CSC[C@H]1[C@H](c1cccc(F)c1)[C@]21CCC/C(=C\c2cccc(F)c2)C1=O
[1]
  IC50: 15.7 µM
[2]
  IC50: 145 µM

## O=C1Nc2ccccc2[C@]12N1CSC[C@H]1C(c1ccc(Cl)cc1Cl)[C@]21CCC/C(=C\c2ccc(Cl)cc2Cl)C1=O (single isomer, unassigned)
[1]
  IC50: 19.5 µM
[2]
  IC50: 26.1 µM

## Cc1cccc(/C=C2\CCC[C@@]3(C2=O)[C@@H](c2cccc(C)c2)[C@@H]2CSCN2[C@@]32C(=O)Nc3ccccc32)c1
[1]
  IC50: 30.7 µM
[2]
  IC50: 28.1 µM

## O=c1[nH]cc(F)c(=O)[nH]1 [FLUOROURACIL]
[2]
  IC50: 78.3 µM

## O=C1Nc2ccccc2[C@]12N1CSC[C@H]1[C@H](c1cccc([N+](=O)[O-])c1)[C@]21CCC/C(=C\c2cccc([N+](=O)[O-])c2)C1=O
[1]
  IC50: 27.6 µM
[2]
  IC50: 25.8 µM
